Test system: patients with rheumatoid arthritis
Test: Phase II clinical study in rheumatoid arthritis: effectiveness (symptoms, physical examination, comprehensive evaluation)
Format: in vivo, human
Design: ESR Reduced to norm., % of cases / CRP Reduced to Norm., % of cases / RF Reduced to norm., % of cases: concentration or dose not given beside the values
Procedure: It was a multiple-centered, randomized, parallel, positive controlled Phrase II clinical study.
All clinical studies except the above mentioned 120 cases were conducted in a single-blind condition.
1) Age 18˜65, male or female who agreed to the investigational treatment for 12 weeks to 6 months. History of rheumatoid arthritis was within 3 years.
2) Documented Rheumatoid Arthritis based on a diagnostic criteria of 1987 Revised ARA Criteria for the Classification of Rheumatoid Arthritis
3) Diagnosis of a typical active stage of RA: A patient is said to be on an active stage of RA if he or she has satisfied at least 4 of the following 5 items.
2) Patient who quitted the treatment for the ineffectiveness 7 days after the start of administration was included in the efficacy analysis. Patient who quitted the treatment for the side effects was not included in the efficacy analysis but the safety analyses.
1) The placebo run-in period: Seven days before administration, the selected patients stopped using NSAIDs and took a placebo instead.
4) For the double-blinded study, patients in both groups would be given capsules and tablets in same shapes, odors and amount. Placebo of capsule or tablet were included. Neither doctors nor patients can tell the group of treatment from the other.
5) No analgesics, anti-inflammation drugs, immune regulatory agents or muscle relaxants were allowed during the period of study. Acetaminophen could be used when necessary. If a physical therapy was started before enrollment, it was allowed to be continued, yet, it should be taken all the way during the period of clinical study.
1) Pain at rest: patients were asked to scale the degree of pain with a ruler [drawing 1]
2) Morning stiffness: Patients were requested to make notes on duration of their morning joint stiffness, a time span from its appearance to recovery in minutes every morning. The doctors should evaluate their record sheets by questioning them. For example “Do you fell stiff in any of your joints? (today, these 2 days)” When get a “yes” in answer, then “when did you get up today?” and “when does the stiffness be gone?”
3) Swelling of joints: Take count of the index of joint swelling by summing up the degree number of each joint.
0=normal; 1=swelling soft tissues (synovium) without hydrarthrus; 2=swelling soft tissues (synovium) with hydrarthrus.
4) Tenderness of joints: Take count of the index of joint tenderness by summing up the degree number of each joint:
5) Grip strength: Fold the arm belt of a sphygmomanometer twice and seal it in a small cloth bag suitable for a hand to hold. Aerates the belt in pressure of 20 mm Hg. Patients were asked to grip the bag with their not braced left and right hand, the grip strength is the average pressures in mm Hg for three times.
6) Time consumed for a 15 meters' walk (Seconds): Time started from a calm standing to the final of 15 meters. The average of three times.
7) General joint function (criteria of ARA):
8) Self-scoring and physician's grading on disease conditions: Both patients and doctors were required to submit their score sheet every time on follow-up survey. The scoring was made upon following criteria:
9) Patient's general condition: condition on the physical strength, sleep and appetite.
No effect: less than 30% improvement in symptoms and physical signs.
Improved: About 50% improvement in symptoms and physical signs (including general conditions in physical strength, sleep and appetite).

CN(Cc1cnc2nc(N)nc(N)c2n1)c1ccc(C(=O)N[C@@H](CCC(=O)O)C(=O)O)cc1 [MTX, Methotrexate]
MR Disappeared, cases (double blinded, 12 weeks): 15 | NSJ 50% reduced, % of cases (double blinded, 12 weeks): 56.7% | NSJ 50% reduced, cases (double blinded, 12 weeks): 34 | NSJ Disappeared, % of cases (double blinded, 12 weeks): 26.7% | NSJ Disappeared, cases (double blinded, 12 weeks): 16 | RF 2 dilutions lower, % of cases (double blinded, 12 weeks): 36.7% | RF 2 dilutions lower, cases (double blinded, 12 weeks): 22 | RF Reduced to norm., cases (double blinded, 12 weeks): 0 | AGS 50% increased, % of cases (overall group, 4 weeks): 7.5% | AGS 50% increased, cases (overall group, 4 weeks): 19 | CRP 50% reduced, % of cases (overall group, 4 weeks): 13.4% | CRP 50% reduced, cases (overall group, 4 weeks): 19 | CRP Reduced to Norm., % of cases (overall group, 4 weeks): 4.9% | CRP Reduced to Norm., cases (overall group, 4 weeks): 7 | ESR 50% reduced, % of cases (overall group, 4 weeks): 41.6% | ESR 50% reduced, cases (overall group, 4 weeks): 59 | ESR Reduced to norm., % of cases (overall group, 4 weeks): 15.5% | ESR Reduced to norm., cases (overall group, 4 weeks): 22 | ITJ 50% reduced, % of cases (overall group, 4 weeks): 19.0% | ITJ 50% reduced, cases (overall group, 4 weeks): 27 | ITJ Disappeared, % of cases (overall group, 4 weeks): 2.8% | ITJ Disappeared, cases (overall group, 4 weeks): 4 | MR 50% reduced, % of cases (overall group, 4 weeks): 45.8% | MR 50% reduced, cases (overall group, 4 weeks): 65 | MR Disappeared, % of cases (overall group, 4 weeks): 9.8% | MR Disappeared, cases (overall group, 4 weeks): 14 | NSJ 50% reduced, % of cases (overall group, 4 weeks): 48.6% | NSJ 50% reduced, cases (overall group, 4 weeks): 69 | NSJ Disappeared, % of cases (overall group, 4 weeks): 10.6% | NSJ Disappeared, cases (overall group, 4 weeks): 15 | RF 2 dilutions lower, % of cases (overall group, 4 weeks): 49.3% | RF 2 dilutions lower, cases (overall group, 4 weeks): 70 | RF Reduced to norm., % of cases (overall group, 4 weeks): 4.9% | RF Reduced to norm., cases (overall group, 4 weeks): 7 | AGS 50% increased, % of cases (overall group, 8 weeks): 16.7% | AGS 50% increased, cases (overall group, 8 weeks): 23 | CRP 50% reduced, % of cases (overall group, 8 weeks): 17.6% | CRP 50% reduced, cases (overall group, 8 weeks): 25 | CRP Reduced to Norm., % of cases (overall group, 8 weeks): 12.7% | CRP Reduced to Norm., cases (overall group, 8 weeks): 18 | ESR 50% reduced, cases (overall group, 8 weeks): 80 | ESR Reduced to norm., % of cases (overall group, 8 weeks): 18.3% | ESR Reduced to norm., cases (overall group, 8 weeks): 26 | ITJ 50% reduced, % of cases (overall group, 8 weeks): 34.5% | ITJ 50% reduced, cases (overall group, 8 weeks): 49 | ITJ Disappeared, % of cases (overall group, 8 weeks): 3.5% | ITJ Disappeared, cases (overall group, 8 weeks): 5 | MR 50% reduced, % of cases (overall group, 8 weeks): 52.1% | MR 50% reduced, cases (overall group, 8 weeks): 74 | MR Disappeared, % of cases (overall group, 8 weeks): 19.7% | MR Disappeared, cases (overall group, 8 weeks): 28 | NSJ 50% reduced, % of cases (overall group, 8 weeks): 51.4% | NSJ 50% reduced, cases (overall group, 8 weeks): 73 | NSJ Disappeared, % of cases (overall group, 8 weeks): 16.9% | NSJ Disappeared, cases (overall group, 8 weeks): 24 | RF 2 dilutions lower, % of cases (overall group, 8 weeks): 59.9% | RF 2 dilutions lower, cases (overall group, 8 weeks): 85 | RF Reduced to norm., % of cases (overall group, 8 weeks): 9.2% | RF Reduced to norm., cases (overall group, 8 weeks): 13 | AGS 50% increased, % of cases (overall group, 12 weeks): 29.5% | AGS 50% increased, cases (overall group, 12 weeks): 42 | CRP 50% reduced, % of cases (overall group, 12 weeks): 23.2% | CRP 50% reduced, cases (overall group, 12 weeks): 33 | CRP Reduced to Norm., % of cases (overall group, 12 weeks): 17.6% | CRP Reduced to Norm., cases (overall group, 12 weeks): 25 | ESR 50% reduced, cases (overall group, 12 weeks): 76 | ESR Reduced to norm., % of cases (overall group, 12 weeks): 21.8% | ESR Reduced to norm., cases (overall group, 12 weeks): 31 | ITJ 50% reduced, % of cases (overall group, 12 weeks): 50.7% | ITJ 50% reduced, cases (overall group, 12 weeks): 72 | ITJ Disappeared, % of cases (overall group, 12 weeks): 6.3% | ITJ Disappeared, cases (overall group, 12 weeks): 9 | MR 50% reduced, % of cases (overall group, 12 weeks): 67.6% | MR 50% reduced, cases (overall group, 12 weeks): 96 | MR Disappeared, % of cases (overall group, 12 weeks): 11.3% | MR Disappeared, cases (overall group, 12 weeks): 34 | NSJ 50% reduced, % of cases (overall group, 12 weeks): 61.3% | NSJ 50% reduced, cases (overall group, 12 weeks): 87 | NSJ Disappeared, % of cases (overall group, 12 weeks): 19.0% | NSJ Disappeared, cases (overall group, 12 weeks): 27 | RF 2 dilutions lower, % of cases (overall group, 12 weeks): 59.9% | RF 2 dilutions lower, cases (overall group, 12 weeks): 85 | RF Reduced to norm., % of cases (overall group, 12 weeks): 11.3% | RF Reduced to norm., cases (overall group, 12 weeks): 16 | AGS 50% increased, % of cases (overall group, 24 weeks): 16.7% | AGS 50% increased, cases (overall group, 24 weeks): 10 | CRP 50% reduced, % of cases (overall group, 24 weeks): 18.3% | CRP 50% reduced, cases (overall group, 24 weeks): 11 | CRP Reduced to Norm., % of cases (overall group, 24 weeks): 40.0% | CRP Reduced to Norm., cases (overall group, 24 weeks): 24 | ESR 50% reduced, % of cases (overall group, 24 weeks): 23.3% | ESR 50% reduced, cases (overall group, 24 weeks): 14 | ESR Reduced to norm., % of cases (overall group, 24 weeks): 43.3% | ESR Reduced to norm., cases (overall group, 24 weeks): 26 | ITJ 50% reduced, % of cases (overall group, 24 weeks): 58.3% | ITJ 50% reduced, cases (overall group, 24 weeks): 35 | ITJ Disappeared, % of cases (overall group, 24 weeks): 10.0% | ITJ Disappeared, cases (overall group, 24 weeks): 6 | MR 50% reduced, % of cases (overall group, 24 weeks): 50.0% | MR 50% reduced, cases (overall group, 24 weeks): 30 | MR Disappeared, % of cases (overall group, 24 weeks): 31.7% | MR Disappeared, cases (overall group, 24 weeks): 19 | NSJ 50% reduced, % of cases (overall group, 24 weeks): 46.7% | NSJ 50% reduced, cases (overall group, 24 weeks): 28 | NSJ Disappeared, % of cases (overall group, 24 weeks): 26.7% | NSJ Disappeared, cases (overall group, 24 weeks): 16 | RF 2 dilutions lower, % of cases (overall group, 24 weeks): 38.3% | RF 2 dilutions lower, cases (overall group, 24 weeks): 23 | RF Reduced to norm., % of cases (overall group, 24 weeks): 10.0% | RF Reduced to norm., cases (overall group, 24 weeks): 6 | Changes in RA perimeters: GS-L (overall groups, 4 weeks, mean): 12.56 | Changes in RA perimeters: GS-R (overall groups, 4 weeks, mean): 11.60 | Changes in RA perimeters: ISJ (overall groups, 4 weeks, mean): 3.73 | Changes in RA perimeters: ITJ (overall groups, 4 weeks, mean): 6.04 | Changes in RA perimeters: MR (overall groups, 4 weeks, mean): 35.76 | Changes in RA perimeters: NSJ (overall groups, 4 weeks, mean): 2.10 | Changes in RA perimeters: NTJ (overall groups, 4 weeks, mean): 2.61 | Changes in RA perimeters: PR (overall groups, 4 weeks, mean): 1.05 | Changes in RA perimeters: GS-L (overall groups, 8 weeks, mean): 16.66 | Changes in RA perimeters: GS-R (overall groups, 8 weeks, mean): 19.36 | Changes in RA perimeters: ITJ (overall groups, 8 weeks, mean): 12.66 | Changes in RA perimeters: MR (overall groups, 8 weeks, mean): 54.20 | Changes in RA perimeters: NSJ (overall groups, 8 weeks, mean): 4.43 | Changes in RA perimeters: NTJ (overall groups, 8 weeks, mean): 5.38 | Changes in RA perimeters: PR (overall groups, 8 weeks, mean): 1.94 | Changes in RA perimeters: TSJ (overall groups, 8 weeks, mean): 6.59 | Changes in RA perimeters: GS-L (overall groups, 12 weeks, mean): 23.06 | Changes in RA perimeters: GS-R (overall groups, 12 weeks, mean): 28.10 | Changes in RA perimeters: ISJ (overall groups, 12 weeks, mean): 10.25 | Changes in RA perimeters: ITJ (overall groups, 12 weeks, mean): 18.77 | Changes in RA perimeters: MR (overall groups, 12 weeks, mean): 78.52 | Changes in RA perimeters: NSJ (overall groups, 12 weeks, mean): 6.77 | Changes in RA perimeters: NTJ (overall groups, 12 weeks, mean): 8.78 | Changes in RA perimeters: GS-L (overall groups, 24 weeks, mean): 31.83 | Changes in RA perimeters: GS-R (overall groups, 24 weeks, mean): 30.90 | Changes in RA perimeters: ISJ (overall groups, 24 weeks, mean): 6.88 | Changes in RA perimeters: ITJ (overall groups, 24 weeks, mean): 13.94 | Changes in RA perimeters: MR (overall groups, 24 weeks, mean): 60.70 | Changes in RA perimeters: NSJ (overall groups, 24 weeks, mean): 5.39 | Changes in RA perimeters: NTJ (overall groups, 24 weeks, mean): 9.05 | Changes in RA perimeters: PR (overall groups, 24 weeks, mean): 2.62
